Legend:
nematodes (C. elegans) [1] = conditions: sri-14 mutant; 4M NaCl
Text: The present inventor has used 4 M NaCl for osmotic stimulus, and has assayed an osmotic pressure avoidance behavior, as previously reported (38).

[2] = tested on: RNAi-treated eri-1 (mg366) nematodes; assay: RNAi screening of olfactory receptor genes: chemotaxis assay of RNAi-treated nematodes to odorants; format: in vivo, Caenorhabditis elegans; conditions: for chemotaxis index: low concentration of attractant
Procedure: The RNAi assay was carried out by performing an RNAi method involving the feeding (feeding RNAi method) of eri-1 (mg366) (19), using an Ahringer library (37).
(§1) Nine adult eri-1 mutants were placed on an NGM plate containing isopropyl 1-D-1-thiogalactopyranoside (0.19 g/L), ampicillin (60 mg/L), and Escherichia coli (E. coli), and were then cultured for 4 days. Subsequently, the adult worms were used in a chemotaxis assay. The chemotaxis assay was carried out as previously reported (6, 17). In the chemotaxis assay, the present inventor has used 30 to 50 worms in each experiment in which 1 μl of 10^−3- or 10^−4-diluted odorant (low concentration), or 1 and 5 μl of undiluted odorants (high concentration) were used.
The z score and a control value in each single test from 2SD were calculated in all days (Table 3) or every day. The z score was used as a threshold indicating a great difference (−1.96 and 1.96, P<0.05). […] Accordingly, the present inventor has used the z score±1 (−0.96 and 0.96, P<0.33) as a weaker threshold.

nematodes (C. elegans) [3] = assay: Chemotaxis assay of wild-type, mutant, neuron-specific knockdown, neuron-ablated or interneuron-inhibited nematodes to odorants; format: in vivo, Caenorhabditis elegans
Procedure: Except for the eri-1 mutant that was cultured with Escherichia coli (E. coli) OP50, the nematodes (C. elegans) were cultured at 20° C. under standard conditions in a nematode growth medium (NGM) plate (36) comprising Escherichia coli NA22 as a food source. The used wild-type nematodes were of a Bristol N2 strain. As other nematode strains, GR1373: eri-1 (mg366), VC2123: sri-14 (ok2865), CX3410: odr-10 (ky225), and MT7929: unc-13 (e51) were used.
as §1
A gene to knock down the function of sri-14 in specific neurons was constructed, as previously reported (24). The target region of sri-14 (a 1.6-kb genome sequence) was amplified using the following two primers: […]
The gene expression of ASH was carried out using a sra-6 (20) promoter, and that of AWC was carried out using ceh-36 (39) and srd-17 promoters.
The present inventor has used mouse caspase-1 (mCasp1) for ablation of the AWA, AWB, AWC and ASH neurons. mCasp1 was each expressed by odr-10 (11), str-1 (15), ceh-36 (39), and sra-6 (20) promoters, respectively. Moreover, for inhibition of interneurons, unc-103 (gf) was used. The AIA-, AIB-, AIY-, or AIZ-specific expression of the unc-103 (gf) was carried out using a gcy-28.d (29), npr-9 (40), ttx-3 (41, 42), or lin-11 (43, 44) promoter, respectively.
Total RNA, which had been isolated using PureLink RNA Minikit (Ambion), was converted to cDNA by ReverTra Ace qPCR master mix using gDNA Remover (Toyobo) in accordance with the instructions made by the manufacturer. The sri-14 cDNA was amplified using the following two primers, was then digested with Nhe I and Kpn I, and was then inserted into a pPD-DEST vector (Invitrogen): […]

AWA neurons = assay: Calcium imaging (YC3.60, microfluidic device) of AWA neurons to diacetyl; format: in vivo, Caenorhabditis elegans
Procedure: (§2) In order to monitor the response of the AWA, AWB, AWC and ASH neurons, the present inventor has produced strains expressing YC3.60, using odr-10, str-1, odr-3, and sra-6 promoters (11, 15, 20, and 45), respectively. As previously reported (33, 46, 47), calcium imaging was carried out using a microfluidic device. In an experiment using such a microfluidic device, a nematode was captured by a microchannel such that the nose of the nematode was exposed to running water containing a solution of diacetyl [10^−5-diluted (low concentration) and 10^−3-diluted (high concentration)], or a solution with no smell, and thus, each nematode was immobilized. The room temperature was set from 20° C. to 23° C. The fluorescence image of YC3.60 was taken using Zeiss Axioplan 2 comprising 40× objective lens and a 3CCD digital camera (C7780, Hamamatsu Photonics). All images were recovered at an exposure time of 200 ms. The time stacks of AWA, AWB, AWC, and ASH cell bodies were captured, and thereafter, using AquaCosmos software (ver. 2.6, Hamamatsu Photonics), the emission ratio between a yellow fluorescent protein (YFP) and a cyan fluorescent protein (CFP) was analyzed. This ratio was calculated as YEP intensity/CFP intensity (R), and the average ratio in 10-second window (−10 to 0 seconds) was set as RO.

ASH neurons = assay: Calcium imaging (YC3.60, microfluidic device) of ASH neurons to diacetyl; format: in vivo, Caenorhabditis elegans
Procedure: as §2

AWC neurons = assay: Calcium imaging (YC3.60, microfluidic device) of AWC neurons to diacetyl; format: in vivo, Caenorhabditis elegans; conditions: wild-type; removal of high concentration of diacetyl (10^−3 diluted)
Procedure: as §2

AWB neurons = assay: Calcium imaging (YC3.60, microfluidic device) of AWB neurons to diacetyl; format: in vivo, Caenorhabditis elegans
Procedure: as §2

[4] = high concentration of diacetyl (5 μl, undiluted)
[5] = unc-103 (gf) expression, high concentration of diacetyl (5 μl, undiluted)
[6] = high concentration of diacetyl (10^−3 diluted)
[7] = low concentration of diacetyl (10^−5 diluted)
[8] = low (10^−5 diluted) and high (10^−3 diluted) concentration of diacetyl

[Cl-].[Na+] [NaCl]
avoidance behavior to high osmotic stimulus (nematodes (C. elegans) [1]): normal avoidance behavior

CC(=O)C(C)=O [diacetyl]
avoidance from diacetyl after RNAi of sri-14 ([2]; RNAi of sri-14, high concentration of diacetyl (5 μl, undiluted)): significantly strong defect in the avoidance
response (chemotaxis) to diacetyl after knockdown of odr-10 ([2]; eri-1 mutant, RNAi of odr-10, low concentration (10; diluted) of diacetyl): specific defect in the response
avoidance behavior from diacetyl after RNAi of srh-25, srh-79, srh-216 or srh-281 ([2]; high concentration of diacetyl (5 μl, undiluted), repeated assay): significant and reproducible defect
response of AWA and ASH double-ablated nematodes (nematodes (C. elegans) [3]; high concentration of diacetyl): more severe defect
avoidance behavior of ASH-ablated nematodes (nematodes (C. elegans) [3]; [4]): avoidance behavior was inhibited
avoidance defect of sri-14 mutant with ASH-specific expression of sri-14 cDNA (nematodes (C. elegans) [3]; [4]): rescued
avoidance defect of sri-14 mutant with AWA-, AWB- or AWC-specific expression of sri-14 cDNA (nematodes (C. elegans) [3]; [4]): partially rescued or was not rescued
avoidance of AWA-ablated nematodes (nematodes (C. elegans) [3]; [4]): decrease in the avoidance
chemotaxis of AWB- or AWC-ablated nematodes (nematodes (C. elegans) [3]; [4]): did not exhibit a defect in the chemotaxis
attraction of AWA-ablated nematodes (nematodes (C. elegans) [3]; low concentration of diacetyl (10^−3 diluted)): decrease in the attraction
attraction of nematodes with interneurons inhibited (nematodes (C. elegans) [3]; low concentration of diacetyl (10^−3 diluted), except for MY): not influenced
chemotaxis of odr-10 mutant (nematodes (C. elegans) [3]; high concentration of diacetyl): normal chemotaxis
chemotaxis of odr-10 mutant (nematodes (C. elegans) [3]; low concentration of diacetyl): reduced attraction
avoidance response of sri-14 mutant (nematodes (C. elegans) [3]; sri-14 (ok2865) mutant, high concentration of diacetyl): defect in the avoidance response
reaction of sri-14 loss-of-function mutant (nematodes (C. elegans) [3]; sri-14 mutant, low concentration of diacetyl): normal reaction
response of nematodes with AIA, AIY or AIZ interneurons inhibited (nematodes (C. elegans) [3]; [5]): from an avoidance response to an attraction response
response of nematodes with AIB interneurons inhibited (nematodes (C. elegans) [3]; [5]): attenuated the avoidance response
avoidance from diacetyl, ASH-specific knockdown of sri-14 (nematodes (C. elegans) [3]; wild-type nematode, ASH-specific RNAi of sri-14, high concentration of diacetyl (5 μl, undiluted)): defect in the avoidance
avoidance from diacetyl, AWC-specific knockdown of sri-14 (nematodes (C. elegans) [3]; wild-type nematode, AWC-specific RNAi of sri-14, high concentration of diacetyl (5 μl, undiluted)): abnormality was not observed
calcium response of AWA neurons, odr-10 mutants and wild-type nematodes (AWA neurons; [6]): normally responded
calcium response of AWA neurons, odr-10 mutants (AWA neurons; [7]): did not respond
calcium response of AWA neurons, wild-type nematodes or sri-14 mutants (AWA neurons; [7]): intracellular calcium was increased
Ca2+ response of ASH neurons, odr-10 mutant (ASH neurons; [6]): normally induced
Ca2+ response of ASH neurons, sri-14 mutant (ASH neurons; [6]): significantly reduced
Ca2+ response of ASH, ASH-specific knockdown of sri-14 in wild-type nematodes (ASH neurons; [6]): reduced
calcium response of ASH neurons, AWA-ablated nematodes (ASH neurons; [6]): enhances the calcium response
defect in ASH response of sri-14 mutant with ASH-specific expression of wild-type sri-14 (ASH neurons; [6]): rescued
Ca2+ response of ASH neurons, wild-type nematodes (ASH neurons; [8]): Ca2+ response only to a high concentration of diacetyl was detected
calcium response of ASH neurons, unc-13 mutants vs wild type (ASH neurons; unc-13(e51), high concentration of diacetyl (10^−3 diluted)): significantly larger
Ca2+ response of AWC neurons after removal of diacetyl (AWC neurons): a Ca2+ response occurs
Ca2+ response of wild-type AWB neurons after removal of the smell (AWB neurons; [8]): slight Ca2+ response
Ca2+ response of AWB neurons with ectopic expression of SRI-14 (AWB neurons; removal of high concentration of diacetyl (10^−3 diluted), vs wild-type AWB): significantly enhanced
Ca2+ response of AWB neurons with ectopic expression of SRI-14 (AWB neurons; removal of low concentration of diacetyl (10^−5 diluted)): did not change the response

CC(C)CCO [isoamyl alcohol]
chemotaxis index ([2]; srh-10 RNAi-treated nematodes): −0.12
chemotaxis index ([2]; srh-11 RNAi-treated nematodes): 0.05
chemotaxis index ([2]; srh-15 RNAi-treated nematodes): 0.59
chemotaxis index ([2]; srh-16 RNAi-treated nematodes): 0.86
chemotaxis index ([2]; srh-18 RNAi-treated nematodes): 0.67
chemotaxis index ([2]; srh-19 RNAi-treated nematodes): 0.67
chemotaxis index ([2]; srh-22 RNAi-treated nematodes): 0.58
chemotaxis index ([2]; srh-23 RNAi-treated nematodes): 0.54
chemotaxis index ([2]; srh-24 RNAi-treated nematodes): 0.58
chemotaxis index ([2]; srh-214 RNAi-treated nematodes): 0.63
chemotaxis index ([2]; srh-216 RNAi-treated nematodes): 0.76
chemotaxis index ([2]; srh-217 RNAi-treated nematodes): −0.12
chemotaxis index ([2]; srh-220 RNAi-treated nematodes): 0.81
chemotaxis index ([2]; srh-222 RNAi-treated nematodes): 0.80
chemotaxis index ([2]; srh-223 RNAi-treated nematodes): 0.51
chemotaxis index ([2]; srh-227 RNAi-treated nematodes): 0.43
chemotaxis index ([2]; srh-229 RNAi-treated nematodes): −0.20
chemotaxis index ([2]; srh-233 RNAi-treated nematodes): 0.36
chemotaxis index ([2]; srh-235 RNAi-treated nematodes): 0.64
chemotaxis index ([2]; srh-236 RNAi-treated nematodes): 0.41
chemotaxis index ([2]; srh-239 RNAi-treated nematodes): 0.57
chemotaxis index ([2]; srh-241 RNAi-treated nematodes): 0.63
chemotaxis index ([2]; srh-243 RNAi-treated nematodes): 0.46
chemotaxis index ([2]; srh-244 RNAi-treated nematodes): 0.74
chemotaxis index ([2]; srh-247 RNAi-treated nematodes): 0.60
chemotaxis index ([2]; srh-250 RNAi-treated nematodes): 0.47
chemotaxis index ([2]; srh-251 RNAi-treated nematodes): 0.75
chemotaxis index ([2]; srh-252 RNAi-treated nematodes): 0.59
chemotaxis index ([2]; srh-258 RNAi-treated nematodes): 0.78
chemotaxis index ([2]; srh-261 RNAi-treated nematodes): 0.51
chemotaxis index ([2]; srh-264 RNAi-treated nematodes): 0.61
chemotaxis index ([2]; srh-266 RNAi-treated nematodes): 0.25
chemotaxis index ([2]; srh-274 RNAi-treated nematodes): 0.44
chemotaxis index ([2]; srh-275 RNAi-treated nematodes): 0.39
chemotaxis index ([2]; srh-276 RNAi-treated nematodes): 0.58
chemotaxis index ([2]; srh-277 RNAi-treated nematodes): 0.54
chemotaxis index ([2]; srh-279 RNAi-treated nematodes): 0.53
chemotaxis index ([2]; srh-281 RNAi-treated nematodes): 0.51
chemotaxis index ([2]; srh-282 RNAi-treated nematodes): 0.52
chemotaxis index ([2]; srh-283 RNAi-treated nematodes): 0.34
chemotaxis index ([2]; srh-284 RNAi-treated nematodes): 0.73
chemotaxis index ([2]; srh-291 RNAi-treated nematodes): 0.80
chemotaxis index ([2]; srh-292 RNAi-treated nematodes): 0.43
chemotaxis index ([2]; srh-293 RNAi-treated nematodes): 0.71
chemotaxis index ([2]; srh-297 RNAi-treated nematodes): 0.42
chemotaxis index ([2]; srh-298 RNAi-treated nematodes): 0.68
chemotaxis index ([2]; srh-308 RNAi-treated nematodes): 0.56

From US12493040B2, “Cancer detection method using sense of smell of nematode” (HIROTSU BIO SCIENCE INC., priority 2013, dated 2025)
